We go through two compounds from PMC6897945, “CytA, a reductase in the cytorhodin biosynthesis pathway, inactivates anthracycline drugs in Streptomyces” (Communications Biology, 2019).

In one assay the test system is CytA. Put plainly: Enzyme kinetics of CytA (formation of deglycosylation products, anaerobic). The assay is classed as biochemical, Streptomyces sp. SCSIO 1666. Conditions: for fold more efficient CytA processing than for 22–26: relative to clinical anthracyclines 22–26; for Km / kcat: substrate of CytA, 0.5 μM CytA, 20 μM NADH, anaerobic. As to the method: Enzymatic reactions were carried out under anaerobic conditions in an anaerobic workstation (Don Whitley Scientific A45) containing a gas phase of N2/H2/CO2 (80:10: 10%, by vol.). ^1H, ^13C, and 2D (COSY, HMQC, HMBC and NOESY) NMR spectra were recorded at 25 °C with an Avance 700 MHz spectrometer instruments (Bruker). High-resolution mass spectra were obtained with a Maxis quadrupole-time-of-flight mass spectrometer (Bruker).
To validate the in vitro biochemical activities of CytA, we overexpressed and purified this enzyme as a soluble N-terminally His6-tagged protein from E. coli (Fig. 2a). Tris-Cl buffer was made O2 free by boiling, followed by cooling under N2 flow; NADH stock solution (dissolved in Tris-Cl), substrate stock solution (dissolved in DMSO), and enzyme solution (dissolved in Tris-Cl supplemented with 10% glycerin) were subjected to O2 eliminating process in the anaerobic workstations for at least two cycles (40 min for one cycle). CytA enzymatic activity was tested in 50 μL volume containing 50 mM Tris-Cl (pH 8.0), 25 μM substrate, 0.5 μM CytA, and 20 μM NADH, at 37 °C for 30 min. The reaction was quenched with the addition to 2 volumes MeOH. After centrifugation to remove protein, supernatants were analyzed with Agilent HPLC equipment using a Phenomenex Prodigy ODS column S5 (150 × 4.60 mm, 5 μ) and UV detection at 254 and 500 nm. Samples were eluted with a gradient elution of phase A containing 0.1% TFA in ddH2O and phase B containing 100% acetonitrile, at a flow rate of 1 mL/min.
Kinetic analyses of CytA with putative substrates 6–10, daunorubicin, doxorubicin, idarubicin, epirubicin and pirarubicin, involved a reaction volume of 20 μL consisting of 50 mM Tris-Cl (pH 8.0), 0.5 μM CytA, 20 μM NADH, […]
All assays were performed in triplicate and Km and Vmax values were calculated on the basis of curve fitting to the Michaelis-Menten equation: v = Vmax *[S]/(Km + [S]) (Supplementary Fig. 7).
For kinetics of CytA, Origin 9.0 (OriginLab Co.) was used to analyze on the basis of curve fitting to the Michaelis-Menten equation. Experiments were performed in triplicate independently. For antibacterial activity, experiments were performed in triplicate using 96-well plates.

For assay [1], the system named is Streptomyces sp. SCSIO 1666 WT. The assay can be described thus: Growth inhibition zone assay. The assay is classed as cell-based. The following applies: WT producer, paper discs impregnated with compound, 1 μg. An excerpt: (§1) We also noted that the ∆cytA mutant strain accumulated small amounts (80~100-fold lower than WT producer) of the immediate biosynthetic precursors of cosmomycins A (3) and B (4). The in vitro antimicrobial activities of compounds 1–13 against a panel of gram-positive bacteria (Table 2) provided some insight into the possible physiological significance of CytA-catalyzed reductions. Furthermore, we had observed that the ΔcytA mutant strain is clearly impaired relative to the WT strain upon addition of 6 or 7 as potential substrates. To evaluate this effect, we probed the sensitivity of Streptomyces sp. SCSIO 1666 to 6 and 7 in an inhibition zone assay (Fig. 3). A clear inhibition zone (16 mm) using the ΔcytA mutant plate was observed when supplemented with 1 μg of 6 or 7. […] That CytA production endows cosmomycin resistance provides strong evidence that the cytA gene directly confers Streptomyces. sp. SCSIO 1666 with the ability to protect itself from the effects by self-resistance to cosmomycins C and D.
(§2) Fig. 3 Sensitivity of Streptomyces sp. SCSIO 1666 toward cosmomycin C (6) and cosmomycin D (7) (1 μg) as determined by growth inhibition zone assays. […] TEXT PRINTED IN THE PICTURE: 6: ΔcytA mutant strain: 16 mm DOUBTS OF THE COPYIST ABOUT THIS PICTURE: 6, ΔcytA mutant strain: the small yellow print reads 16 mm, but it could be 15 or 18 mm / 6: the yellow double arrow marked 16 mm spans the zone around disc 6. The picture prints no measure name, so it may be the inhibition zone diameter or only a scale mark

Assay [2] has as its system Streptomyces sp. SCSIO 1666 ΔcytA mutant strain. The assay can be described thus: Growth inhibition zone assay. The assay is classed as cell-based. The following applies: Streptomyces, read-out: inhibition zone.
Excerpt: as §1, §2

For the next assay, the system named is MDA-MB-468 cells. Conditions: read-out: IC50 against MDA-MB-468 cells; cited from earlier work.

With `CC[C@@]1(O)C[C@H](O[C@H]2C[C@H](N(C)C)[C@@H](O[C@H]3C[C@H](O)[C@@H](O[C@H]4CC[C@H](O)[C@H](C)O4)[C@H](C)O3)[C@H](C)O2)c2c(O)c3c(c(O)c2[C@H]1O[C@H]1C[C@H](N(C)C)[C@@H](O[C@H]2CC[C@H](O[C@H]4CC[C@H](O)[C@H](C)O4)[C@H](C)O2)[C@H](C)O1)C(=O)c1cccc(O)c1C3=O` [Compound 6, cosmomycin C], in the assay on CytA, the “fold more efficient CytA processing than for 22–26” value was 2–3 fold, the Km (usually the substrate concentration at which the rate is half of its maximum) was found to be 14.3 µM and the kcat (usually the maximal rate divided by the concentration of active sites) stood at 0.0118 s⁻¹. Moreover, the “growth inhibition near paper discs” value in assay [1] is “little to no growth inhibition”. The zone of inhibition at 1 µg/disc in assay [2] was determined as 16 mm. Also, in the assay on MDA-MB-468 cells, the IC50 (in general, the point on the concentration scale where inhibition reaches its midpoint) was 210 nM.
`CC[C@@]1(O)C[C@H](O[C@H]2C[C@H](N(C)C)[C@H](O[C@H]3C[C@H](O)[C@H](O[C@H]4CC[C@H](O)[C@H](C)O4)[C@H](C)O3)[C@H](C)O2)c2c(O)c3c(c(O)c2[C@H]1O[C@H]1C[C@H](N(C)C)[C@H](O[C@H]2C[C@H](O)[C@H](O[C@H]4CC[C@H](O)[C@H](C)O4)[C@H](C)O2)[C@H](C)O1)C(=O)c1cccc(O)c1C3=O` [Compound 7, cosmomycin D]: in the assay with CytA, the “fold more efficient CytA processing than for 22–26” value is 2–3 fold, the Km came to 17.9 µM and the kcat worked out at 0.0132 s⁻¹. Besides, the “growth inhibition near paper discs” value in assay [1] is given as “little to no growth inhibition”. Moreover, in assay [2], the zone of inhibition at 1 µg/disc was determined as 16 mm.
